Data on one compound can be found in patent publication US4496584A, “Amidine derivatives with anti-complement activity” (Torii & Co. Ltd., priority 1981, dated 1985).

Data set [1] concerns kallikrein. Kind of data set: Enzyme inhibition, TAME hydrolysis, kallikrein (method of Muramatsu et al.). The settings on record: 1×10^-5 M. The class given is biochemical. Here is the method:
(§1) The enzyme inhibitory activity was determined according to the method of Muramatsu et al. [M. Muramatsu, T. Onishi, S. Makino, Y. Hayashi and S. Fujii, J. Biochem., 58, 214 (1965)]. The data summarized in Table 1 are expressed in terms of molar concentration (ID50) of the test compound which inhibits 50% of the activity of each enzyme to hydrolyze TAME (tosylarginine methyl ester).

For data set [2], the target named is T1, Cls (Homo sapiens, UniProt P09871).
T1 sequence (P09871 438-688 limits assumed): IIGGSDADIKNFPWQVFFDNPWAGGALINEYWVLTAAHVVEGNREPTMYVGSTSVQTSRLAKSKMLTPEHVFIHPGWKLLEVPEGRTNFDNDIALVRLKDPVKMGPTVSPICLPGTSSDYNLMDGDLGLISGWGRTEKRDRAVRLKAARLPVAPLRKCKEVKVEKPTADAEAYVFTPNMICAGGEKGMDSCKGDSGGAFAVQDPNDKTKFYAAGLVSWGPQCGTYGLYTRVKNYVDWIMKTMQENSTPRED
T1 sequence (P09871 16-437 partner limits assumed): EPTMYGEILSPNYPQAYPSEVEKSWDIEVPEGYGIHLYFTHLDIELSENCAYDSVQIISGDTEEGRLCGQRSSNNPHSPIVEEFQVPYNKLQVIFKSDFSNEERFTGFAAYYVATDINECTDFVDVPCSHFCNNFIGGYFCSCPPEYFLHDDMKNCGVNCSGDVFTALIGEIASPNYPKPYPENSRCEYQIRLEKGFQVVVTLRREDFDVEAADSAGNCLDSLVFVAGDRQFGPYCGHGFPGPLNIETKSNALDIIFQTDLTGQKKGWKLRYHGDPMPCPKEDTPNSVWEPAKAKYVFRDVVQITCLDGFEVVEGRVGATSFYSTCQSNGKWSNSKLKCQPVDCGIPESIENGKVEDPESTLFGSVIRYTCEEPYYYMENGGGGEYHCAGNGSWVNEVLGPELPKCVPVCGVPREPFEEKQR
Kind of data set: Anti-Cl esterase activity, Cls (ATEE hydrolysis, method of Okamura et al.). Type of data set: biochemical. The settings on record: read-out: Anti-C1 activity, Cls (ID50). Here is the method: (§2) The anti-Cl esterase (Clr, Cls) activity was determined according to the method of Okamura et al. [K. Okamura, M. Muramatsu and S. Fujii, Biochem. Biophys. Acta, 295, 252-257 (1973)]. The inhibition of complement mediated hemolysis (percent) was determined according to the method of Baker et al. [B. R. Baker and E. H. Erickson, J. Med. Chem., 12, 408-414 (1969)]. The figures in Table 2 have the following meanings:
Cls: Molar concentration of the test compound which inhibits 50% of the ability of Cls to hydrolyse ATEE (acetyltyrosin ethyl ester) (ID50).

Data set [3] has as its target T2, trypsin (Bos taurus, UniProt P00760).
T2 sequence (P00760 24-246): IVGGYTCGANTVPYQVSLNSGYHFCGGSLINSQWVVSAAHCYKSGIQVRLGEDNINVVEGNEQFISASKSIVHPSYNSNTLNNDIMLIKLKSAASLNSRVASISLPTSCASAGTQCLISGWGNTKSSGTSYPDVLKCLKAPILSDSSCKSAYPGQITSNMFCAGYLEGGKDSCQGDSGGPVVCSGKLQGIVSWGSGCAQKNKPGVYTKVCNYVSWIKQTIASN
Kind of data set: Enzyme inhibition, TAME hydrolysis, trypsin (method of Muramatsu et al.). Type of data set: biochemical. The settings on record: read-out: percentage inhibition, trypsin (figure in parentheses). Here is the method: as §1

Data set [4] has as its target T3, Clr (Homo sapiens, UniProt P00736).
T3 sequence (P00736 464-705 limits assumed): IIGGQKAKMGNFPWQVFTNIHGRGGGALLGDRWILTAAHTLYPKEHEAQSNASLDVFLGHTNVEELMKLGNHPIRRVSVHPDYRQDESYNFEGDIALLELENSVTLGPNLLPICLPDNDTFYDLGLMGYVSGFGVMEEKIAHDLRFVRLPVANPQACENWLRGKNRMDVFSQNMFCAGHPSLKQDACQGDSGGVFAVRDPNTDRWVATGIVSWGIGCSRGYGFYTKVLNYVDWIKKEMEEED
T3 sequence (P00736 18-463 partner limits assumed): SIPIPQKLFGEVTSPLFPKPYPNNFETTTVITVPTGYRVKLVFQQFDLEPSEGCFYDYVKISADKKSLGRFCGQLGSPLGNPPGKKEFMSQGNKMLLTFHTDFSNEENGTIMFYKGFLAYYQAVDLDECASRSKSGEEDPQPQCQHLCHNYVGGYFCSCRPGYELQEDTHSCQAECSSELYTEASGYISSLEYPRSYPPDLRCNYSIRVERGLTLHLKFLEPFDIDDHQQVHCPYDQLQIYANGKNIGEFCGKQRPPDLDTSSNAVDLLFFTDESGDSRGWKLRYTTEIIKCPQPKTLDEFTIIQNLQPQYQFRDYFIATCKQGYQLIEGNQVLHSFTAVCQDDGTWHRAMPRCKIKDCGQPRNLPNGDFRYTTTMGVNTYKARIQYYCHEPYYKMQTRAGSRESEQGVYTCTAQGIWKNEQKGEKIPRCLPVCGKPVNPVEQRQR
Kind of data set: Anti-Cl esterase activity, Clr (AAME hydrolysis, method of Okamura et al.). Type of data set: biochemical. The settings on record: read-out: Anti-C1 activity, Clr (ID50). Here is the method:
as §2
Clr: Molar concentration of the test compound which inhibits 50% of the ability of Clr to hydrolyse AAME (acetylarginin methyl ester) (ID50).

Data set [5] relates to complement mediated hemolysis. Kind of data set: Inhibition of complement mediated hemolysis (method of Baker et al.). Type of data set: cell-based.
Data set [6] has as its system Forssman shock. Kind of data set: Forssman shock, time elapsed until death. The class given is in vivo, guinea pig. The settings on record: 5 minutes before hemolysin. Here is the method:
The experiment was performed according to the method of I. G. Offerness et al. [Biochem. Pharmacol., 27 (14), 1873-1878 (1978)]. Male Hartlay guinea pig of about 300 g in body weight was used. Each guinea pig of the control group was administered intravenously with 0.5 ml (minimum dose to cause the shock) of hemolysin (commercial hemolysin, 5,000 U as assayed by the method of Ogata) and the time elapsed until death was observed. For the test group, each guinea pig was administered intravenously with the test compound 5 minutes before the administration of hemolysin and the time (second) elapsed until death was observed.

In data set [7] the target is thrombin (Bos taurus, UniProt P00735). Kind of data set: Enzyme inhibition, TAME hydrolysis, thrombin (method of Muramatsu et al.). The class given is biochemical. Here is the method: as §1
For data set [8], the target named is plasmin (Homo sapiens, UniProt P00747). Kind of data set: Enzyme inhibition, TAME hydrolysis, plasmin (method of Muramatsu et al.). Type of data set: biochemical. The settings on record: read-out: ID50, plasmin. Here is the method:
as §1

The nature of data set [9]: Toxicity, lethal dose (LD50). The settings on record: mouse, in vivo.

Structures are written as SMILES. “And” between values parts separate entries of the source, which are not always exact repeats. Equal entries are not always repeated. Where two headings read alike, the source gives them in different places.

Sequence of plasmin (P00747 581-810 limits assumed): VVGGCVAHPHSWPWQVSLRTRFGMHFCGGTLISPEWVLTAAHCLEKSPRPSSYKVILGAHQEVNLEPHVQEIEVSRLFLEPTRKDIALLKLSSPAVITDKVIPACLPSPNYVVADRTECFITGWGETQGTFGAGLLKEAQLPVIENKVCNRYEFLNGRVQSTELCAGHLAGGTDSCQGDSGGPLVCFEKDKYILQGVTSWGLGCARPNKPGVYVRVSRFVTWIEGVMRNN
Sequence of plasmin (P00747 97-580 partner limits assumed): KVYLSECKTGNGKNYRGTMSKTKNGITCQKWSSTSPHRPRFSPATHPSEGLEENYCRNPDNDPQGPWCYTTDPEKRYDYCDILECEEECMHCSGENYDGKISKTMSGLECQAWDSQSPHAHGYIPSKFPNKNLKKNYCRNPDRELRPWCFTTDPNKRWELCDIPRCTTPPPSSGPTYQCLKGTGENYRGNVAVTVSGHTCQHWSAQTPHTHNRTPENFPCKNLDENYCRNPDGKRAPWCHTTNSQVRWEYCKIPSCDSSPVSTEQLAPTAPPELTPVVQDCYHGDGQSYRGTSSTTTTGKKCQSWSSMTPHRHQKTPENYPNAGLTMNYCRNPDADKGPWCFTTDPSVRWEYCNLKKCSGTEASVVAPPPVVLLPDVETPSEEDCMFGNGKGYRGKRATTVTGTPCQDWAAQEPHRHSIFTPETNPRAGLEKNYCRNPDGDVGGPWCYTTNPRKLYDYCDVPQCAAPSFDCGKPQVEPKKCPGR

For `N=C(N)c1ccc2cc(OC(=O)[C@H]3CC[C@H](CN)CC3)ccc2c1` [Compound No. 20, 6-amidino-2-naphthyl trans-4-aminomethylcyclohexanecarboxylate], in [1], the “percentage inhibition, kallikrein (figure in parentheses)” value is reported as 38%. Moreover, the IC50 in data set [2] was 4 µM; in data set [4], 5 µM; in [7] it was > 10 µM; in [8] it was > 10 µM. Further, the inhibition at 10 µM in data set [3] was 28%. Also, the “Inhibition of complement mediated hemolysis (%)” value in data set [5] (concentration 1 × 10^-4) turned out to be 100%; in [5] (concentration 1 × 10^-5) it was 99%; in [5] (concentration 1 × 10^-6) it was 80%; in data set [5] (concentration 1 × 10^-7), 12%. In [6] (1.0 mg/kg intravenously, average of 6, control average 428), the “time elapsed until death, Average” value worked out at 442 s. In addition, the “time elapsed until death” value in [6] (1.0 mg/kg intravenously, individual animals 1-6) is 360 s and 365 s and 325 s and 620 s and 650 s. The “time elapsed until death / survival” value in data set [6] (3.0 mg/kg intravenously, individual animals 1-6, ditto mark = Survival) is recorded as “Survival”. In addition, the LD50 in data set [9] (ip, read-out: LD50 Mouse IP) is 175 mg/kg; in data set [9] (po, read-out: LD50 Mouse PO) it was 2000 mg/kg.

Usually inhibition stands for how much of the control response was suppressed. As a reminder, the LD50 is the dose at which mortality reaches 50%.
